In PMC10613275 (Scientific Reports, 2023):
Read-outs that look alike come from different tables or passages of the source. Marks after values point to notes of the source that are not given here.

Assays:
[1] = tested on: CHO-K1 cells (hprt gene); assay: CHO/HPRT mutation assay; format: cell-based, Chinese hamster; conditions: Table 4, With S9; lilial 500 µM, 3MC 2 µg/ml
Description: The test with metabolic activation was performed as described in the OECD protocol, the ASTM standard[23] and other protocols[30],[31] and publications. For the test, cryopreserved CHO-K1 cells after the mutant cleansing were used. Mutant cleansing was performed according to[30], i.e. cells were cultivated three days in HAT medium, one day in HT medium and then frozen.
One passage after the thawing, 1 × 10^6 cells were seeded in 60 mm cultivation plates as described in[32]. […] The final concentration of the solvent, DMSO, was 1%. […] EMS at final concentration 2 mM as recommended in[31] served as a positive control. 3-MC at final concentration […][22] served as a positive control for metabolic activation. 1% DMSO was used as a VC. Sole cultivation medium served as a negative control (NC). After 4 h, the medium with tested substances was removed, plates were washed with PBS and fresh medium with 10% FBS was added.
During the expression period (1 week), the cells on all 60 mm plates were passaged once. On day 8, cells were trypsinized, resuspended, counted and 2 × 10^5 cells of each plate were seeded on 60 mm plates in triplicates in the presence of a selective agents, 6-TG (30 µM) as described in[32]. […] 300 cells without the selective agent were seeded in a parallel to evaluate plating efficiency (PE). On day 15, the plates were washed with PBS, cells were fixed with ice cold methanol for 10 min and stained with 0.05% crystal violet in water for 30 min[33]. After washing with water, formed colonies were counted using Schuett Count (Schuett-biotec, Göttingen, Germany). Calculations were done as described in[29]. PE was calculated according to a general Eq. 1. Particular PE at selective conditions was calculated according to Eq. 2. Particular PE at non-selective conditions was calculated according to Eq. 3. Mutation frequency (MF) was calculated according to Eq. 4.1 PE=numberofcoloniesformed/numberofcellsplated 2 PEselective=numberofmutantcoloniesNMC/200,000 3 PEnon-selective=numberofcoloniesformed/300 4 MF=PEselectiveconditions/PEnon-selectiveconditions

[2] = tested on: CHO-K1 cells (hprt gene); assay: CHO/HPRT mutation assay; format: cell-based, Chinese hamster; conditions: 3MC 2 µg/ml
[3] = tested on: androgen receptor; assay: Androgenic activity, transactivation luciferase assay in MDA-kb2; conditions: MDA-kb2, positive control
Text: Results were expressed as fold induction (FI), i.e. fold increase compared to vehicle control. According to EPA[28], FI of positive control should be above 4 to meet the performance standard.

[4] = tested on: HeLa cells; assay: γH2AX biomarker-based genotoxicity assay, HeLa; format: cell-based, human; conditions: PC 30 μM; for Fold, mean (γH2AX over negative control): above 1.5 indicates genotoxicity
Description: (§1) Briefly, HeLa and CHO-K1 cells were seeded at a concentration of 1 × 10^5 cells/ml into the 96-well plates. CHO-K1 cells were used for comparison with HPRT test. HeLa cells were recommended by the manufacturer of the kit. After 24 h, cells were rinsed with PBS and cultivation medium (“Cell lines” Section) without ATB, with a reduced content of FBS (5%) was added. 30 µM valinomycin (in DMSO) was used as a positive control Samples were applied in the presence of non-toxic sample concentrations, i.e. 100 µM either with or without S9 mix. […] Cells were photographed using a fluorescence microscope (Olympus IX83); filters: DAPI (500 ms) and Cy3 (500 ms). Bioimage analysis in ImageJ software was performed as described previously.

[5] = tested on: CHO-K1 cells; format: cell-based, Chinese hamster; conditions: lilial 100 µM, PC 30 μM; for Fold, mean (γH2AX over negative control): above 1.5 indicates genotoxicity
Description: as §1

[6] = tested on: RPTEC/TERT1 cells; assay: Nephrotoxicity, RT-qPCR of kidney damage biomarkers; format: cell-based, human; conditions: 100 µM, 48 h, normalized to GAPDH and ACTB
Description: RPTEC/TERT1 cells were seeded at a concentration of 2 × 10^5 cells/ml in ProxUp2 medium into 60 mm Petri dishes. After 24 h, the cells were washed with PBS and […] metabolites (100 μM) were applied in fresh ProxUp2 medium. The cells were incubated with samples for 48 h, after which the cells were washed with PBS and dishes were frozen in - 160 °C. The RNA was isolated using RNeasy Plus Mini Kit (Qiagen, Hilden, Germany). The RNA concentration and purity was determined with NanoDrop One (ThermoFisher Scientific) spectrophotometr. The cDNA synthesis was performed from 0.1 μg of total RNA with an iScript Reverse Transcription Supermix (Bio-Rad, Hercules, California, USA). Quantitative real-time PCR (qPCR) was performed using the qPCR Bio-Rad C100 Touch System (Bio-Rad) with a 96-well block. The reaction mixture consisted of 1 μl of specific 20 × PrimePCR Assay (Bio-Rad), 10 μl of 2 × SsoAdvance Universal Supermix (Bio-Rad), 2 μl of cDNA sample, 7 μl of nuclease-free water. The final reaction volume was 20 μl. […] Cycling parameters were: initial denaturation at 95 °C for 2 min, followed by 40 cycles of 95 °C for 5 s and 60 °C for 30 s. Fluorescence values were acquired after each extension phase. Samples were analyzed in triplicate, and samples with a standard deviation of duplicates > 0.2 Ct were re-analyzed. A non-template control containing nuclease-free water instead of cDNA as well as non-RT control containing purified RNA without reverse transcription was used. The real-time PCR study followed the MIQE guidelines. Relative transcript levels of the estimated genes in the cell lines were compared using the software CFX Maestro Software 2.3 (Bio-Rad).

[7] = design: method as in PMID 32763837; conditions: children and adolescents in Germany ref 40; cited from earlier work
[8] = tested on: rats; conditions: rats ref 41; cited from earlier work
[9] = tested on: MCF-7 human breast cancer cells; conditions: lilial 100 µM, estrogen 10 nM; unaffected control 1.8 doublings ref 8; cited from earlier work
[10] = Table 4, Without S9, lilial 500 µM

For `Cc1ccc2cc3c(ccc4ccccc43)c3c2c1CC3` [3MC, 3-methylcholanthren], the “NMC (number of mutant colonies)” value [1] was 17 ± 2, the “PE (%) plating efficiency” value [1] was 55 ± 4% and the “MF (/106) mutation frequency” value ([2]; Table 4, With S9, lilial 500 µM) was 152 ± 14 /106. For the same compound, the “MF (/10^6) mutation frequency” value ([2]; Table 4, Without S9) was 25 ± 31 /10^6, the “NMC (number of mutant colonies)” value [2, 10] was 3 ± 4 and the “PE (%) plating efficiency” value [2, 10] was 66 ± 3%.

For `C[C@]12CCC(=O)C[C@@H]1CC[C@@H]1[C@@H]2CC[C@]2(C)[C@@H](O)CC[C@@H]12` [DHT, dihydrotestosterone, reference compound], the “Concentration from which fold induction (FI) significantly increased” value [3] was ≥ 0.5 nM.

In the case of `CC(C)[C@@H]1NC(=O)[C@H](C)OC(=O)[C@@H](C(C)C)NC(=O)[C@@H](C(C)C)OC(=O)[C@H](C(C)C)NC(=O)[C@H](C)OC(=O)[C@@H](C(C)C)NC(=O)[C@@H](C(C)C)OC(=O)[C@H](C(C)C)NC(=O)[C@H](C)OC(=O)[C@@H](C(C)C)NC(=O)[C@@H](C(C)C)OC1=O` [PC, valinomycin], the “MoA (mean fluorescence values over area of the nuclei)” value ([4]; 4h_S9, lilial 100 µM) is reported as 0.29**, the “RA (%), mean (relative area of nuclei)” value ([4]; 4h_S9, lilial 100 µM) is reported as 97.8% and the “Fold, mean (γH2AX over negative control)” value ([4]; 4h_S9, lilial 100 µM) is reported as 2.94. For the same compound, the “MoA (mean fluorescence values over area of the nuclei)” value ([4]; 4 h, without S9, lilial 100 µM) was 0.13*, the “RA (%), mean (relative area of nuclei)” value ([4]; 4 h, without S9, lilial 100 µM) was 95.8% and the “Fold, mean (γH2AX over negative control)” value ([4]; 4 h, without S9, lilial 100 µM) was 2.63. The “MoA (mean fluorescence values over area of the nuclei)” value ([4]; 24 h, lilial 100 µM) was 0.55*, the “RA (%), mean (relative area of nuclei)” value ([4]; 24 h, lilial 100 µM) was 101.5% and the “Fold, mean (γH2AX over negative control)” value ([4]; 24 h, lilial 100 µM) was 24.03. For the same compound, the “MoA (mean fluorescence values over area of the nuclei)” value ([5]; CHO-K1, 4h_S9) was 0.99, the “RA (%), mean (relative area of nuclei)” value ([5]; CHO-K1, 4h_S9) was 90.8% and the “Fold, mean (γH2AX over negative control)” value ([5]; CHO-K1, 4h_S9) was 1.35. For the same compound, the “MoA (mean fluorescence values over area of the nuclei)” value ([5]; CHO-K1, 4 h, without S9) was 1.14, the “RA (%), mean (relative area of nuclei)” value ([5]; CHO-K1, 4 h, without S9) was 75.3% and the “Fold, mean (γH2AX over negative control)” value ([5]; CHO-K1, 4 h, without S9) was 1.45. The “MoA (mean fluorescence values over area of the nuclei)” value ([5]; CHO-K1, 24 h) was 5.26, the “RA (%), mean (relative area of nuclei)” value ([5]; CHO-K1, 24 h) was 48.5% and the “Fold, mean (γH2AX over negative control)” value ([5]; CHO-K1, 24 h) was 4.43.

With `CN(C)[C@@H]1C(O)=C(C(N)=O)C(=O)[C@@]2(O)C(O)=C3C(=O)c4c(O)cccc4[C@@](C)(O)[C@H]3C[C@@H]12` [Tetracycline] the “Relative fold gene expression, CLU” value [6] was 4.09*, the “Relative fold gene expression, CST3” value [6] was 1.64* and the “Relative fold gene expression, HMOX” value [6] was 4.93**. The “Relative fold gene expression, IL6” value [6] was 1.70, the “Relative fold gene expression, IL8” value [6] was 1.19 and the “Relative fold gene expression, IPO8” value [6] was 1.41**. The “Relative fold gene expression, TIMP1” value [6] was 1.31.

In the case of `CC(Cc1ccc(C(C)(C)CO)cc1)C(=O)O` (stereo not shown) [hydroxy-lysmerylic acid], the “Geometric mean concentration in urine” value [7] is given as < 0.4 µg/L.

For `CC(Cc1ccc(C(C)(C)C)cc1)C(=O)O` (stereo not shown) [lysmerylic acid], the “Geometric mean concentration in urine” value [7] is listed as < 0.2 µg/L.

For `CC(C)(C)c1ccc(C(=O)O)cc1` [p-tert-butylbenzoic acid], the “Effects on male reproduction” value [8] is given as “adverse effects on male reproduction” and the “Geometric mean concentration in urine” value [7] is given as 10.21 µg/L.

For estrogen [reference compound], the Cell doublings [9] is given as 5.2 doublings.
